Measured values: patent US10597388B2, “Pyridazinone herbicides” (FMC CORPORATION, priority 2014, dated 2020)

Key:
Type in all cases: in vivo
[1] = tested on: foxtail, giant (giant foxtail, Setaria faberii); assay: Test C greenhouse herbicide test, pre- and postemergence
Summary of the method: (§1)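 Visual 0–100 injury score (100 = complete control) taken against untreated controls after 13–15 d in greenhouse. Test chemicals, formulated in solvent plus surfactant, applied preemergence to seeds in loam–sand soil or postemergence to 1- to 4-leaf plants (2–18 cm).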

[2] = tested on: johnsongrass (Sorghum halepense); assay: as above
Summary of the method: as §1

[3] = tested on: velvetleaf (Abutilon theophrasti); assay: as above
Summary of the method: as §1

[4] = tested on: pigweed (Amaranthus retroflexus); assay: as above
Summary of the method: as §1

soybean (Glycine max) = assay: as above
Summary of the method: as §1

[5] = tested on: ryegrass, Italian (Italian ryegrass, Lolium multiflorum); assay: as above
Summary of the method: as §1

[6] = tested on: morningglory (Ipomoea coccinea); assay: as above
Summary of the method: as §1

corn (Zea mays) = assay: as above
Summary of the method: as §1

[7] = tested on: blackgrass (Alopecurus myosuroides); assay: as above
Summary of the method: as §1

[8] = tested on: oilseed rape (Brassica napus); assay: as above
Summary of the method: as §1

[9] = tested on: crabgrass, large (large crabgrass, Digitaria sanguinalis); assay: as above
Summary of the method: as §1

[10] = tested on: waterhemp (common waterhemp, Amaranthus rudis); assay: as above
Summary of the method: as §1

[11] = tested on: ragweed (common ragweed, Ambrosia elatior); assay: as above
Summary of the method: as §1

[12] = tested on: lambsquarters (Chenopodium album); assay: as above
Summary of the method: as §1

[13] = tested on: oat, wild (wild oat, Avena fatua); assay: Test C greenhouse herbicide test, postemergence; details: Postemergence
Summary of the method: (§2)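 Test chemicals were applied postemergence to greenhouse plants at the 1- to 4-leaf stage (2–18 cm tall) growing in peat/vermiculite medium. After 13–15 d, injury was rated visually against untreated controls on a 0–100 scale (0 = no effect, 100 = complete control).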

kochia (Kochia scoparia) = assay: Test C greenhouse herbicide test, postemergence; details: Postemergence
Summary of the method: as §2

[14] = Postemergence, 31 g ai/ha, scale 0 to 100 (0 no effect, 100 complete control)
[15] = Postemergence, 125 g ai/ha, scale 0 to 100, 0 is no effect, 100 is complete control
[16] = Postemergence, 250 g ai/ha, scale 0 to 100, 0 no effect, 100 complete control, 13 to 15 d
[17] = Preemergence, 31 g ai/ha, scale 0 to 100, 0 is no effect, 100 is complete control
[18] = Preemergence, 62 g ai/ha, scale 0 to 100, 0 is no effect, 100 is complete control
[19] = Preemergence, 125 g ai/ha, scale 0 to 100, 0 is no effect, 100 is complete control
[20] = Preemergence, 250 g ai/ha, scale 0 to 100 (0 no effect, 100 complete control)
[21] = postemergence, 62 g ai/ha, scale 0 to 100, 0 no effect, 100 complete control
[22] = 31 g ai/ha, scale 0 to 100 (0 no effect, 100 complete control)
[23] = 125 g ai/ha, scale 0 to 100, 0 is no effect, 100 is complete control
[24] = 250 g ai/ha, scale 0 to 100, 0 no effect, 100 complete control, 13 to 15 d

CCCC(=O)Oc1c(C)nn(C)c(=O)c1-c1c(C)sc2c(C)cc(C)cc12 [Compound 106]
5: Plant response rating, Johnsongrass [2, 14] | Plant response rating, Johnsongrass [2, 17] | Plant response rating, Johnsongrass [2, 18] | Plant response rating, Johnsongrass [2, 19]
65: Plant response rating, Waterhemp [10, 14]
50: Plant response rating, Ryegrass, Italian [5, 17] | Plant response rating, Blackgrass [7, 18] | Blackgrass plant response rating [7, 21] | Plant response rating, Oat, Wild [13, 22]
45: Plant response rating, Blackgrass [7, 14]
80: Plant response rating, Velvetleaf [3, 14] | Crabgrass, Large plant response rating [9, 20] | Plant response rating, Waterhemp [10, 16] | Plant response rating, Waterhemp [10, 19] | Plant response rating, Ragweed [11, 14] | Plant response rating, Kochia (kochia (Kochia scoparia); [23]) | Plant response rating, Kochia (kochia (Kochia scoparia); [24])
25: Plant response rating, Crabgrass, Large [9, 14]
30: Plant response rating, Oilseed Rape [8, 19] | Plant response rating, Crabgrass, Large [9, 15] | Plant response rating, Crabgrass, Large [9, 16]
90: Plant response rating, Foxtail, Giant [1, 15] | Plant response rating, Velvetleaf [3, 15] | Velvetleaf plant response rating [3, 20] | Plant response rating, Pigweed [4, 15] | Plant response rating, Pigweed [4, 16] | Plant response rating, Ryegrass, Italian [5, 15] | Ryegrass, Italian plant response rating [5, 20] | Plant response rating, Morningglory [6, 18] | Plant response rating, Blackgrass [7, 19] | Oilseed Rape plant response rating [8, 20] | Waterhemp plant response rating [10, 20] | Plant response rating, Ragweed [11, 18] | Plant response rating, Lambsquarters [12, 17] | Plant response rating, Lambsquarters [12, 18] | Plant response rating, Oat, Wild [13, 23] | Plant response rating, Oat, Wild [13, 24]
70: Plant response rating, Foxtail, Giant [1, 14] | Plant response rating, Pigweed [4, 14] | Plant response rating, Ryegrass, Italian [5, 18] | Plant response rating, Crabgrass, Large [9, 17] | Plant response rating, Crabgrass, Large [9, 18] | Plant response rating, Waterhemp [10, 17] | Plant response rating, Kochia (kochia (Kochia scoparia); [22])
95: Plant response rating, Foxtail, Giant [1, 16] | Plant response rating, Foxtail, Giant [1, 18] | Plant response rating, Oilseed Rape [8, 16] | Plant response rating, Ragweed [11, 19] | Ragweed plant response rating [11, 20] | Plant response rating, Lambsquarters [12, 15]
85: Plant response rating, Foxtail, Giant [1, 17] | Plant response rating, Velvetleaf [3, 19] | Plant response rating, Ryegrass, Italian [5, 14] | Plant response rating, Ryegrass, Italian [5, 19] | Plant response rating, Morningglory [6, 17] | Blackgrass plant response rating [7, 20] | Plant response rating, Oilseed Rape [8, 15] | Plant response rating, Ragweed [11, 17] | Plant response rating, Lambsquarters [12, 14]
20: Corn plant response rating (corn (Zea mays); [20])
100: Plant response rating, Foxtail, Giant [1, 19] | Foxtail, Giant plant response rating [1, 20] | Plant response rating, Velvetleaf [3, 16] | Plant response rating, Pigweed [4, 19] | Pigweed plant response rating [4, 20] | Plant response rating, Morningglory [6, 14] | Plant response rating, Morningglory [6, 15] | Plant response rating, Lambsquarters [12, 19] | Lambsquarters plant response rating [12, 20]
98: Plant response rating, Pigweed [4, 17] | Plant response rating, Pigweed [4, 18] | Plant response rating, Morningglory [6, 16] | Plant response rating, Morningglory [6, 19] | Morningglory plant response rating [6, 20] | Plant response rating, Ragweed [11, 16] | Plant response rating, Lambsquarters [12, 16]
60: Plant response rating, Velvetleaf [3, 18] | Plant response rating, Blackgrass [7, 15] | Plant response rating, Oilseed Rape [8, 14]
10: Plant response rating, Johnsongrass [2, 15] | Plant response rating, Johnsongrass [2, 16] | Plant response rating, Soybean (soybean (Glycine max); [16]) | Plant response rating, Corn (corn (Zea mays); [15]) | Plant response rating, Corn (corn (Zea mays); [16]) | Plant response rating, Corn (corn (Zea mays); [19]) | Corn plant response rating (corn (Zea mays); [21]) | Plant response rating, Blackgrass [7, 17]
75: Plant response rating, Blackgrass [7, 16] | Plant response rating, Crabgrass, Large [9, 19] | Plant response rating, Waterhemp [10, 15] | Plant response rating, Waterhemp [10, 18] | Plant response rating, Ragweed [11, 15]
35: Plant response rating, Ryegrass, Italian [5, 16]
0: Plant response rating, Soybean (soybean (Glycine max); [14]) | Plant response rating, Soybean (soybean (Glycine max); [15]) | Plant response rating, Soybean (soybean (Glycine max); [17]) | Plant response rating, Soybean (soybean (Glycine max); [18]) | Plant response rating, Soybean (soybean (Glycine max); [19]) | Soybean plant response rating (soybean (Glycine max); [20]) | Plant response rating, Corn (corn (Zea mays); [14]) | Plant response rating, Corn (corn (Zea mays); [17]) | Plant response rating, Corn (corn (Zea mays); [18]) | Plant response rating, Oilseed Rape [8, 17] | Plant response rating, Oilseed Rape [8, 18]
40: Plant response rating, Velvetleaf [3, 17] | Crabgrass, Large plant response rating [9, 21]
15: Johnsongrass plant response rating [2, 20]
